Source: paper PMC4051630, “A Comparison of Protein Kinases Inhibitor Screening Methods Using Both Enzymatic Activity and Binding Affinity Determination” (PLoS ONE, 2014)

Columns and labels:
Assay in all cases: Differential Scanning Fluorimetry (DSF) Tm shift
Format in all cases: binding
[1] = target: T1, CHK2 Catalytic Domain (Homo sapiens, UniProt O96017); settings: 2 µM protein, 10 µM inhibitor, average of 3 experiments, each in duplicate
T1 construct: For all of them, we expressed and purified the catalytic domain separately; His-tag; made in house; host or cells: Escherichia coli

[2] = target: T2, FES Catalytic Domain (Homo sapiens, UniProt P07332); settings: 2 µM protein, 10 µM inhibitor, average of 3 experiments, each in duplicate
T2 construct: For all of them, we expressed and purified the catalytic domain separately; His-tag; made in house; host or cells: Escherichia coli

[3] = target: T3, AKT3 Catalytic Domain (Homo sapiens, UniProt Q9Y243); settings: 2 µM protein, 10 µM inhibitor, average of 3 experiments, each in duplicate
T3 construct: AKT3 (Q9Y243); CD; His-tag; made in house; host or cells: Escherichia coli

[4] = target: SRC Catalytic Domain+SH2+SH3 (Homo sapiens, UniProt P12931); settings: 2 µM protein, 10 µM inhibitor, average of 3 experiments, each in duplicate
[5] = target: T4, FES Catalytic Domain+SH2 (Homo sapiens, UniProt P07332); settings: 2 µM protein, 10 µM inhibitor, average of 3 experiments, each in duplicate
T4 construct: for 8, we also made a longer version containing one or more additional domains; His-tag; made in house; host or cells: Escherichia coli

[6] = target: T5, PAK7 Catalytic Domain (Homo sapiens, UniProt Q9P286); settings: 2 µM protein, 10 µM inhibitor, average of 3 experiments, each in duplicate
T5 construct: For all of them, we expressed and purified the catalytic domain separately; His-tag; made in house; host or cells: Escherichia coli

[7] = target: T6, CDK2 + Cyclin A (Homo sapiens, UniProt P24941); settings: CDK2 + Cyclin A; 2 µM protein, 10 µM inhibitor; average of 3 experiments, each in duplicate
T6 construct: CDK2 (P24941); 1–299; His-tag; made in house; host or cells: Escherichia coli

[8] = target: T7, PAK4 Catalytic Domain (Homo sapiens, UniProt O96013); settings: 2 µM protein, 10 µM inhibitor, average of 3 experiments, each in duplicate
T7 construct: For all of them, we expressed and purified the catalytic domain separately; His-tag; made in house; host or cells: Escherichia coli

[9] = target: T8, STK3 Catalytic domain+SARAH (Homo sapiens, UniProt Q13188); settings: 2 µM protein, 10 µM inhibitor, average of 3 experiments, each in duplicate
T8 construct: for 8, we also made a longer version containing one or more additional domains; His-tag; made in house; host or cells: Escherichia coli
T8 sequence (Q13188 1-491): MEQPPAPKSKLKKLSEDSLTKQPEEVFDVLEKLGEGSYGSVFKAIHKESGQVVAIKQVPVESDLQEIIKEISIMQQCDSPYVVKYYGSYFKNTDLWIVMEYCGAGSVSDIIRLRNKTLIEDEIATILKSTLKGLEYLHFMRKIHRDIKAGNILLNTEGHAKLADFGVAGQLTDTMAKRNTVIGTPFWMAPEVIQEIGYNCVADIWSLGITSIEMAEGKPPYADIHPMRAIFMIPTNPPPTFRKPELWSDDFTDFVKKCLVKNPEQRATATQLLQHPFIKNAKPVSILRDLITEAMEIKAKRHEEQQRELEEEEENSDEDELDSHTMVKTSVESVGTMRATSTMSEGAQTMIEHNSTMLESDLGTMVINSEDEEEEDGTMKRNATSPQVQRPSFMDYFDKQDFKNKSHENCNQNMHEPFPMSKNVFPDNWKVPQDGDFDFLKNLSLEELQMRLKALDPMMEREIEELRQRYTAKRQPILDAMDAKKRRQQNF

[10] = target: T9, STK3 Catalytic Domain (Homo sapiens, UniProt Q13188); settings: 2 µM protein, 10 µM inhibitor, average of 3 experiments, each in duplicate
T9 construct: For all of them, we expressed and purified the catalytic domain separately; His-tag; made in house; host or cells: Escherichia coli
T9 sequence (Q13188 27-278 limits assumed): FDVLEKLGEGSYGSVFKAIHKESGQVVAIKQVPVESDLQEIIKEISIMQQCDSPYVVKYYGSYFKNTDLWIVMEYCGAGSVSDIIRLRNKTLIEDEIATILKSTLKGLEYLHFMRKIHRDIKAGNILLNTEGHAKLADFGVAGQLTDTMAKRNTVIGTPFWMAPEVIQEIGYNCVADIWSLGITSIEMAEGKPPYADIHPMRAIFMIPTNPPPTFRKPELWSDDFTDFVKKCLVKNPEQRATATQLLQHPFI

[11] = target: T10, PAK4 Catalytic Domain+PBD (Homo sapiens, UniProt O96013); settings: 2 µM protein, 10 µM inhibitor, average of 3 experiments, each in duplicate
T10 construct: for 8, we also made a longer version containing one or more additional domains; His-tag; made in house; host or cells: Escherichia coli

[12] = target: T11, DMPK Catalytic Domain (Homo sapiens, UniProt Q09013); settings: 2 µM protein, 10 µM inhibitor, average of 3 experiments, each in duplicate
T11 construct: For all of them, we expressed and purified the catalytic domain separately; His-tag; made in house; host or cells: Escherichia coli
T11 sequence (Q09013 71-339 limits assumed): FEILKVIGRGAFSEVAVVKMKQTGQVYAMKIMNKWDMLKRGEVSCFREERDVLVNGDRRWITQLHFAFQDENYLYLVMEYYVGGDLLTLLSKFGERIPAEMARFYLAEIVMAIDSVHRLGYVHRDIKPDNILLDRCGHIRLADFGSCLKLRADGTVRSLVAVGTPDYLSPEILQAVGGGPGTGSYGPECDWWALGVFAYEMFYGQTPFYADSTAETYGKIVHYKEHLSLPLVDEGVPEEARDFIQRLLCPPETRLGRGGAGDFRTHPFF

[13] = target: T12, FAK2 Catalytic Domain (Homo sapiens, UniProt Q14289); settings: 2 µM protein, 10 µM inhibitor, average of 3 experiments, each in duplicate
T12 construct: For all of them, we expressed and purified the catalytic domain separately; His-tag; made in house; host or cells: Escherichia coli
T12 sequence (Q14289 425-683 limits assumed): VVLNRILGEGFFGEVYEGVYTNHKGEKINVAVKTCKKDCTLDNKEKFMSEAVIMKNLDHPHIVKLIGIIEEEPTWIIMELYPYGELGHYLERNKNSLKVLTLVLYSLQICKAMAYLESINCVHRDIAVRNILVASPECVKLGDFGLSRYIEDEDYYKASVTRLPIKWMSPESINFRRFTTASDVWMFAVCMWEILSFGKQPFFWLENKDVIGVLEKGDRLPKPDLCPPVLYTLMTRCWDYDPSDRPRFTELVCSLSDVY

T1 sequence (O96017 220-486 limits assumed): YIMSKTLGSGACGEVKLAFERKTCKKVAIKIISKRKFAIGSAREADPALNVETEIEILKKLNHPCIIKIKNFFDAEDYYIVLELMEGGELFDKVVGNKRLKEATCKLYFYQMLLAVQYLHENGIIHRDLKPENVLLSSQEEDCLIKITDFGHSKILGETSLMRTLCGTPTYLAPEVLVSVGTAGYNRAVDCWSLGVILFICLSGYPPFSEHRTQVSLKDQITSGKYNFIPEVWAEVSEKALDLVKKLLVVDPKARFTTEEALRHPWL
T4 sequence (P07332 448-822 limits assumed): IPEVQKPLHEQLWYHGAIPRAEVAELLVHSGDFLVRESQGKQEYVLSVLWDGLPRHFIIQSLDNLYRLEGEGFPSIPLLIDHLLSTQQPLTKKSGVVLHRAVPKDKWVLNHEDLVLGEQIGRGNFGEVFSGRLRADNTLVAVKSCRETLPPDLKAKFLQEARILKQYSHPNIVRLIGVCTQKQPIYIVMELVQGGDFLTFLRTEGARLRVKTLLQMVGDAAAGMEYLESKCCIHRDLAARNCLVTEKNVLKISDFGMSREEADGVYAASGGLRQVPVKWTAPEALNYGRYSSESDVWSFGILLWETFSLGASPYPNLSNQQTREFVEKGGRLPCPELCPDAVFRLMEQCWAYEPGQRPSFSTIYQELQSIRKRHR
Chain of SRC Catalytic Domain+SH2+SH3 (P12931 84-523 limits assumed): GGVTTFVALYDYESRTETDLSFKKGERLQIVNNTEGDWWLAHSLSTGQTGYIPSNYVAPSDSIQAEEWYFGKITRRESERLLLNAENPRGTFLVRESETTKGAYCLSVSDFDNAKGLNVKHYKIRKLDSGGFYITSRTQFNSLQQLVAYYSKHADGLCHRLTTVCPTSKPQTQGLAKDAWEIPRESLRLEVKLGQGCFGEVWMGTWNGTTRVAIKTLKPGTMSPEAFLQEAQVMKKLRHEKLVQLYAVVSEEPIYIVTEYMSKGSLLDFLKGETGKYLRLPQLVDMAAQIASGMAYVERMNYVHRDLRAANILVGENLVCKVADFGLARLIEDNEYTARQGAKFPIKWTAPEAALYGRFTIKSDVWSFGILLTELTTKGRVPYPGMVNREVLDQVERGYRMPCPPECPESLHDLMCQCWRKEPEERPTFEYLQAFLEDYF
T7 sequence (O96013 321-572 limits assumed): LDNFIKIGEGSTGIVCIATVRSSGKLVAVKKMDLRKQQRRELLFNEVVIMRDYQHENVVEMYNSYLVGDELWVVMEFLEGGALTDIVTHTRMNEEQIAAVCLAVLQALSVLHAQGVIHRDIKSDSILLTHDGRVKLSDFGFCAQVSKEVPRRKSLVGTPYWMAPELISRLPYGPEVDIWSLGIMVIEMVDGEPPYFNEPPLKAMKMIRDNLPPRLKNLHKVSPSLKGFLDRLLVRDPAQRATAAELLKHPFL
T2 sequence (P07332 561-822 limits assumed): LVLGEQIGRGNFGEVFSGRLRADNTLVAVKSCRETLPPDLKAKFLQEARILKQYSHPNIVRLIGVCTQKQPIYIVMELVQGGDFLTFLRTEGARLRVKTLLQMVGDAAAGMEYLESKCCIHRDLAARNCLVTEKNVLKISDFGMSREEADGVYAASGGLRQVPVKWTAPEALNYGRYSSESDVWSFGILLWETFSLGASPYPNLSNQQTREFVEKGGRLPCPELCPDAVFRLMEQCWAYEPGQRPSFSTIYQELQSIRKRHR
T10 sequence (O96013 whole entry, the tested form may be a part): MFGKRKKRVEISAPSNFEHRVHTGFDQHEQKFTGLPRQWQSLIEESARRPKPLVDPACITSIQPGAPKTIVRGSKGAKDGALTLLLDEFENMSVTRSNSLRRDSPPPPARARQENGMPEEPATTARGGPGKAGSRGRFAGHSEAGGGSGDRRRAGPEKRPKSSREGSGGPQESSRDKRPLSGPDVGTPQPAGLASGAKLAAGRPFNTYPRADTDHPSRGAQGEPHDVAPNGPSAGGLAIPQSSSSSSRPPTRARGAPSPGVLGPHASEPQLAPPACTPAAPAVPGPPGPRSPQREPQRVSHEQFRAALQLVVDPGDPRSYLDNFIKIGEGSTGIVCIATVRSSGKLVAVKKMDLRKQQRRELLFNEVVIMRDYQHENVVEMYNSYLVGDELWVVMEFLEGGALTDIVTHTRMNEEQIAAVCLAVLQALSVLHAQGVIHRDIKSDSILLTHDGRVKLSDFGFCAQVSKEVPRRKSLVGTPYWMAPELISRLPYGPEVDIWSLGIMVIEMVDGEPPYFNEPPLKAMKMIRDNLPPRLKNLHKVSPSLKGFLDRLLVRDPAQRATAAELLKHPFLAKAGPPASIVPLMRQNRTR
T3 sequence (Q9Y243 122-479): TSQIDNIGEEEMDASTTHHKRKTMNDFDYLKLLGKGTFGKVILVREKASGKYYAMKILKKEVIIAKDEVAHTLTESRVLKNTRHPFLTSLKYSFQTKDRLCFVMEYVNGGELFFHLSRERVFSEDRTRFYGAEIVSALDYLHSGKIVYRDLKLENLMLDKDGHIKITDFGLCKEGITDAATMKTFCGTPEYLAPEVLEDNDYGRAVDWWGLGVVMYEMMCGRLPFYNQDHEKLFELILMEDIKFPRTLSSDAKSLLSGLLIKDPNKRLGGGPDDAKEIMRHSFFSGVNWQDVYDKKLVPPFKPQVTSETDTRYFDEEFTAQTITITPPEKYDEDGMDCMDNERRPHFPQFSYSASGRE
T5 sequence (Q9P286 449-700 limits assumed): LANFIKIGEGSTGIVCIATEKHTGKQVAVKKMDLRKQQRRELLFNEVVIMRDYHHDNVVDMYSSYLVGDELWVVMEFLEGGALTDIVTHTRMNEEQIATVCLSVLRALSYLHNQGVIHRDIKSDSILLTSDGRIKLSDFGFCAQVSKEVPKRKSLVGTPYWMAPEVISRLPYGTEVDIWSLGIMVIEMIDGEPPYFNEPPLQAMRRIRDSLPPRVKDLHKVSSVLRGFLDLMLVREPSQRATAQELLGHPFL

O=C1C(Cl)=C(N2C(=O)CCC2=O)C(=O)c2ccccc21 [MEK Inhibitor II]
Melting temperature (Tm) shift [1]: 0.0 degrees Celcius
Melting temperature (Tm) shift [2]: 0.0 degrees Celcius
Melting temperature (Tm) shift [3]: 0.3 degrees Celcius
Melting temperature (Tm) shift [4]: 0.0 degrees Celcius
Melting temperature (Tm) shift [5]: 0.0 degrees Celcius
Melting temperature (Tm) shift [6]: 0.0 degrees Celcius
Melting temperature (Tm) shift [7]: 0.1 degrees Celcius
Melting temperature (Tm) shift [8]: 0.0 degrees Celcius
Melting temperature (Tm) shift [9]: 0.1 degrees Celcius

CC#CC(=O)Nc1cc2c(Nc3ccc(F)c(Cl)c3)ncnc2cn1 [EGFR/ErbB-2/ErbB-4 Inhibitor]
Melting temperature (Tm) shift [1]: 0.3 degrees Celcius
Melting temperature (Tm) shift [2]: 0.0 degrees Celcius
Melting temperature (Tm) shift [3]: 0.0 degrees Celcius
Melting temperature (Tm) shift [4]: 0.0 degrees Celcius
Melting temperature (Tm) shift [10]: 0.2 degrees Celcius
Melting temperature (Tm) shift [6]: 0.0 degrees Celcius
Melting temperature (Tm) shift [11]: 0.1 degrees Celcius

O=C1c2ccccc2-[n+]2ccc3c([nH]c4ccccc43)c21 [Fascaplysin, Synthetic, Fascaplysin]
Melting temperature (Tm) shift [2]: 0.2 degrees Celcius
Melting temperature (Tm) shift [3]: 0.1 degrees Celcius
Melting temperature (Tm) shift [5]: 0.0 degrees Celcius
Melting temperature (Tm) shift [12]: 0.4 degrees Celcius

O=C1NC(=O)c2c1c1c3ccccc3[nH]c1c1[nH]c3ccccc3c21 [Arcyriaflavin A, Synthetic, Arcyriaflavin A]
Melting temperature (Tm) shift [3]: 0.0 degrees Celcius
Melting temperature (Tm) shift [8]: 0.2 degrees Celcius
Melting temperature (Tm) shift [11]: 0.5 degrees Celcius

Brc1c(Br)c(Br)c2n[nH]nc2c1Br [Casein Kinase II Inhibitor I]
Melting temperature (Tm) shift [1]: 2.2 degrees Celcius
Melting temperature (Tm) shift [2]: 0.0 degrees Celcius
Melting temperature (Tm) shift [13]: 0.1 degrees Celcius
Melting temperature (Tm) shift [3]: 0.1 degrees Celcius
Melting temperature (Tm) shift [4]: 0.2 degrees Celcius
Melting temperature (Tm) shift [5]: 0.8 degrees Celcius
Melting temperature (Tm) shift [10]: 1.1 degrees Celcius
Melting temperature (Tm) shift [12]: 0.6 degrees Celcius
Melting temperature (Tm) shift [8]: 0.2 degrees Celcius
Melting temperature (Tm) shift [11]: 0.9 degrees Celcius
Melting temperature (Tm) shift [9]: 0.4 degrees Celcius

CC(=O)O/N=C1/C(=C2/C(=O)Nc3cc(Br)ccc32)Nc2ccccc21 [GSK-3 Inhibitor X]
Melting temperature (Tm) shift [2]: 0.4 degrees Celcius
Melting temperature (Tm) shift [3]: 0.1 degrees Celcius
Melting temperature (Tm) shift [5]: 0.0 degrees Celcius
Melting temperature (Tm) shift [12]: 0.5 degrees Celcius
Melting temperature (Tm) shift [6]: 0.1 degrees Celcius
Melting temperature (Tm) shift [8]: 0.6 degrees Celcius
Melting temperature (Tm) shift [11]: 1.0 degrees Celcius
Melting temperature (Tm) shift [9]: 0.5 degrees Celcius

O.O=C1NCCc2[nH]c(-c3ccnc(-c4cnc5ccccc5c4)c3)cc21 [MK-2 Inhibitor III]
Melting temperature (Tm) shift [1]: 1.2 degrees Celcius
Melting temperature (Tm) shift [13]: 0.1 degrees Celcius
Melting temperature (Tm) shift [3]: 0.0 degrees Celcius
Melting temperature (Tm) shift [4]: 0.1 degrees Celcius
Melting temperature (Tm) shift [10]: 0.0 degrees Celcius
Melting temperature (Tm) shift [12]: 0.3 degrees Celcius
Melting temperature (Tm) shift [6]: 0.0 degrees Celcius
Melting temperature (Tm) shift [7]: 0.1 degrees Celcius
Melting temperature (Tm) shift [8]: 0.0 degrees Celcius
Melting temperature (Tm) shift [11]: 0.1 degrees Celcius
Melting temperature (Tm) shift [9]: 0.4 degrees Celcius

Akt Inhibitor VIII, Isozyme-Selective, Akti-1/2
Melting temperature (Tm) shift [1]: 0.4 degrees Celcius
Melting temperature (Tm) shift [13]: 0.1 degrees Celcius
Melting temperature (Tm) shift [6]: 0.0 degrees Celcius
Melting temperature (Tm) shift [7]: 0.2 degrees Celcius

CC[C@@H](CO)Nc1nc(NCc2ccccc2)c2ncn(C(C)C)c2n1 (single isomer, unassigned) [Roscovitine, (S)-Isomer]
Melting temperature (Tm) shift [1]: 0.6 degrees Celcius
Melting temperature (Tm) shift [2]: 1.2 degrees Celcius
Melting temperature (Tm) shift [13]: 0.2 degrees Celcius
Melting temperature (Tm) shift [3]: 0.0 degrees Celcius
Melting temperature (Tm) shift [5]: 0.9 degrees Celcius
Melting temperature (Tm) shift [10]: 0.0 degrees Celcius
Melting temperature (Tm) shift [12]: 0.3 degrees Celcius
Melting temperature (Tm) shift [6]: 0.7 degrees Celcius
Melting temperature (Tm) shift [8]: 1.4 degrees Celcius
Melting temperature (Tm) shift [11]: 2.6 degrees Celcius
Melting temperature (Tm) shift [9]: 0.0 degrees Celcius

O=c1c2ccccc2[nH]c(=S)n1CCN1CCC(=C(c2ccc(F)cc2)c2ccc(F)cc2)CC1 [Diacylglycerol Kinase Inhibitor II]
Melting temperature (Tm) shift [2]: 0.7 degrees Celcius
Melting temperature (Tm) shift [11]: 0.2 degrees Celcius

O=C1Nc2ccc(I)cc2/C1=C1/Nc2ccccc2/C1=N\O [Indirubin-3ʹ′-monoxime, 5-Iodo-, Indirubin-3′ -monoxime, 5-Iodo-]
Melting temperature (Tm) shift [10]: 1.2 degrees Celcius
Melting temperature (Tm) shift [8]: 0.3 degrees Celcius
Melting temperature (Tm) shift [11]: 2.3 degrees Celcius
Melting temperature (Tm) shift [9]: 5.6 degrees Celcius

COc1ccc2c(c1)c1c3c(c4c5ccccc5n(C)c4c1n2CC(O)CN(C)C)C(=O)NC3=O.Cl (stereo not shown) [Gö 7874, Hydrochloride]
Melting temperature (Tm) shift [1]: 1.1 degrees Celcius
Melting temperature (Tm) shift [2]: 0.3 degrees Celcius
Melting temperature (Tm) shift [13]: 0.7 degrees Celcius
Melting temperature (Tm) shift [3]: 0.2 degrees Celcius
Melting temperature (Tm) shift [5]: 0.0 degrees Celcius
Melting temperature (Tm) shift [10]: 1.4 degrees Celcius
Melting temperature (Tm) shift [12]: 0.2 degrees Celcius
Melting temperature (Tm) shift [6]: 0.1 degrees Celcius
Melting temperature (Tm) shift [7]: 0.2 degrees Celcius
Melting temperature (Tm) shift [11]: 0.1 degrees Celcius
Melting temperature (Tm) shift [9]: 2.2 degrees Celcius

CN(C)c1nc2c(Br)c(Br)c(Br)c(Br)c2[nH]1 [Casein Kinase II Inhibitor II, DMAT]
Melting temperature (Tm) shift [1]: 0.3 degrees Celcius
Melting temperature (Tm) shift [13]: 3.2 degrees Celcius
Melting temperature (Tm) shift [4]: 0.9 degrees Celcius
Melting temperature (Tm) shift [10]: 0.3 degrees Celcius
Melting temperature (Tm) shift [12]: 0.4 degrees Celcius
Melting temperature (Tm) shift [6]: 4.1 degrees Celcius
Melting temperature (Tm) shift [7]: 0.5 degrees Celcius
Melting temperature (Tm) shift [8]: 0.2 degrees Celcius
Melting temperature (Tm) shift [11]: 0.3 degrees Celcius
Melting temperature (Tm) shift [9]: 0.4 degrees Celcius

O=C1NC(=O)/C(=C/c2ccc3nccnc3c2)S1 [PI 3-Kg Inhibitor]
Melting temperature (Tm) shift [1]: 0.4 degrees Celcius
Melting temperature (Tm) shift [2]: 0.1 degrees Celcius
Melting temperature (Tm) shift [3]: 0.0 degrees Celcius
Melting temperature (Tm) shift [4]: 0.0 degrees Celcius
Melting temperature (Tm) shift [5]: 0.1 degrees Celcius
Melting temperature (Tm) shift [10]: 0.1 degrees Celcius
Melting temperature (Tm) shift [12]: 0.8 degrees Celcius
Melting temperature (Tm) shift [6]: 0.0 degrees Celcius
Melting temperature (Tm) shift [7]: 0.2 degrees Celcius
Melting temperature (Tm) shift [8]: 0.1 degrees Celcius
Melting temperature (Tm) shift [9]: 0.1 degrees Celcius
